Laboratory results reported in PMC6175062, “Gaining Mechanistic Insight Into Coproporphyrin I as Endogenous Biomarker for OATP1B‐Mediated Drug–Drug Interactions Using Population Pharmacokinetic Modeling and Simulation” (Clinical Pharmacology and Therapeutics, 2018).
Values joined by “and” are separate entries in the source; they are usually repeats but may differ in a detail not shown here. Identical values can stand only once. Like-named read-outs stand apart in the source and are kept apart here. Values belong to the compound of their own block, whether it stands above or below them.

Columns and labels:
OATP = settings: cited from earlier work
[1] = Population PK model of rosuvastatin plasma and urine data with/without rifampicin; format: in vivo, human
Protocol: (§1) Individual plasma and urine data were obtained from a previous study in 12 healthy male subjects.6 The study was split into three occasions (OCC1–3) with a 7‐day washout period between OCC1 and 2 and OCC2 and 3. During each occasion, baseline CPI urine and plasma samples were collected (Figure S2). A single 600‐mg oral dose of RIF and a single 5‐mg oral dose of RSV were administered to the volunteers in OCC1 and OCC2, respectively. Finally, in OCC3 the same respective doses of RIF and RSV were coadministered to healthy volunteers. Plasma (RIF, RSV, and CPI) were collected at predefined timepoints over the 24‐h period following administration of RIF and/or RSV. Urine samples were collected over one time interval (−7 to 0 h) for the pretreatment sample (CPI monitored) and two subsequent intervals (0–7 h and 7–24 h) for posttreatment samples of CPI and RSV. The total number of plasma samples for modeling purposes were 276 (OCC1 = 144, OCC3 = 132), 420 (OCC1 = 144, OCC2 = 144, OCC3 = 132), and 264 (OCC2 = 132, OCC3 = 132) for RIF, CPI, and RSV, respectively, whereas the total number of urine samples were 102 (pretreatment = 34, posttreatment = 68) and 44 for CPI and RSV, respectively. No subjects enrolled in the clinical study had OATP1B1*5 or OATP1B1*15 mutations, associated with altered OATP1B1 activity.
(§2) Population PK models were developed sequentially for analysis of RIF, CPI, and RSV plasma and urine data using nonlinear mixed‐effects modeling software, NONMEM, with first‐order conditional estimation method.32 Statistical analysis, GOF plots, and other graphical analysis were conducted in MATLAB. The structural models for RIF and RSV (Supplementary Material) were selected based on population PK models available in the literature.34, 35 An exponential model was used to describe interindividual variability random‐effects parameters and IOV was evaluated for the model parameters; occasions were defined as periods of different visits following recruitment or washout periods. Covariates and random‐effects parameters (IIV and IOV) were retained in the models when there was a significant change in objective function and improvement in GOF plots. The incorporation of IIV and IOV in the models is shown in Equation 2: (2) θik=θ⋅e^ηi+κik where θ ik is the parameter for i^th individual on k^th occasion, θ is the population (typical individual) parameter, η i is the parameter that describes the deviation of the i^th individual parameter from the population (IIV), and k ik the parameter that describes the deviation of the i^th individual from the population in addition to η ik at the k^th occasion (IOV). Both random effect parameters (η ik and k ik) are assumed to be randomly distributed with a mean of zero and the variances are estimated during analysis. Proportional or additive or combination of proportional and additive residual error models were investigated for the residuals.
Based on the available plasma and urine data, a two compartment first order absorption and elimination model was used to describe the PK of RSV in the subjects. The model was parameterised using [picture] , volume of distribution of central ( [picture] ) and peripheral compartments ( [picture] ), inter-compartmental clearance ( [picture] ), biliary ( [picture] ) and renal ( [picture] ) clearance parameters. Analogous to CPI, inhibition of [picture] by RIF was incorporated in the rate of change of RSV plasma concentration, whereas it was assumed that RIF has no effect on RSV renal elimination (Eq 2). The rate of change of RSV amount in urine over time is shown in Eq3.
where [picture] and [picture] are RSV concentrations in central (plasma) and peripheral compartments, [picture] is the amount in depot compartment, [picture] is RSV amount in the urine and [picture] is RIF transporter inhibition constant using RSV as a probe. […]

[2] = Analysis of individual clinical CPI and rosuvastatin data (baseline, AUCR, fT); format: in vivo, human; settings: for mean fraction eliminated via transporters (fT): from AUC with/without RIF (Equation 1)
Protocol: as §1
Variability in baseline CPI plasma concentration between the three occasions was assessed and a one‐way analysis of variance (ANOVA) test was used to determine any significant differences. CPI and RSV plasma concentrations in the presence/absence of RIF were used to calculate the area under the curve (AUC) using the trapezoid function in MATLAB (MathWorks, Natick, MA, 2015a). Subsequently, the fold change in RSV and CPI AUC of each individual and the fraction eliminated by transporters (fT) for each probe was calculated (Equation 1). (1) fT=1−AUC(control)/AUC(+inhibitor)

[3] = Population PK (turnover) model of CPI plasma and urine data with/without rifampicin; format: in vivo, human
Protocol: as §1, §2
The plasma concentrations of the endogenous biomarker CPI were described using a turnover model (Equation 3).36 Simultaneous fitting of individual CPI plasma and urine data in the presence and absence of RIF was performed. In the final model, RIF inhibited biliary elimination (CL b,CPI) of CPI, whereas its renal clearance (CL R,CPI) and k syn were not affected. The rate of change of CPI plasma concentration under baseline and RIF condition is shown in Equations 3 and 4, respectively, whereas change in CPI amount in urine over time is shown in Equation 5. (3) dCCPI/dt=[ksyn−CLb,CPI⋅CCPI−CLR,CPI⋅CCPI]⋅1/VCPI (4) dCCPI/dt=[ksyn−CLb,CPI⋅CCPI/1+CRIF/KiCPI−CLR,CPI⋅CCPI]⋅1/VCPI (5) dUCPI/dt=CLR,CPI⋅CCPI where C CPI is its plasma concentration, U CPI is the CPI amount in urine, t is time, k syn is the zero‐order synthesis rate, Ki CPI is RIF transporter inhibition constant using CPI as a probe, V CPI is the volume of distribution of CPI and C RIF is RIF plasma concentration (linked to RIF model). […]

Compound: CCC(C)n1ncn(-c2ccc(N3CCN(c4ccc(OCC5COC(Cn6cncn6)(c6ccc(Cl)cc6Cl)O5)cc4)CC3)cc2)c1=O (stereo not shown) [Itraconazole]
Fold Change in AUC of rosuvastatin (OATP; inhibitor 200 mg, rosuvastatin 0.025 mg, ref (15)): 1.78 fold

Compound: Cc1cnc(C(=O)N[C@H]2CCCCC/C=C\[C@@H]3C[C@@]3(C(=O)NS(=O)(=O)C3CC3)NC(=O)[C@@H]3C[C@@H](Oc4nc5ccccc5c5ccccc45)CN3C2=O)cn1 [Paritaprevir]
Fold Change in AUC of rosuvastatin (OATP; inhibitor 150 mg, rosuvastatin 10 mg, ref (17)): 2.6 fold

Compound: CC[C@H]1OC(=O)[C@H](C)[C@@H](O[C@H]2C[C@@](C)(OC)[C@@H](O)[C@H](C)O2)[C@H](C)[C@@H](O[C@@H]2O[C@H](C)C[C@H](N(C)C)[C@H]2O)[C@](C)(OC)C[C@@H](C)C(=O)[C@H](C)[C@@H](O)[C@]1(C)O [Clarithromycin]
Fold Change in AUC of rosuvastatin (OATP; inhibitor 500 mg, rosuvastatin 0.025 mg, ref (15)): 1.56 fold

Compound: COc1ccc2c(O[C@@H]3C[C@H]4C(=O)N[C@]5(C(=O)NS(=O)(=O)C6CC6)C[C@H]5/C=C\CCCCN(C)C(=O)[C@@H]4C3)cc(-c3nc(C(C)C)cs3)nc2c1C [Simeprevir]
Fold Change in AUC of rosuvastatin (OATP; inhibitor 150 mg, rosuvastatin 10 mg, ref (19)): 2.8 fold

Compound: CC(C)c1nc(N(C)S(C)(=O)=O)nc(-c2ccc(F)cc2)c1/C=C/[C@@H](O)C[C@@H](O)CC(=O)O [RSV, rosuvastatin]
QRSV, population estimate (SE%) ([1]; RSV alone): 45.3 (19) L/h
V1RSV, population estimate (SE%) ([1]; RSV alone): 430 (12) L
V2RSV, population estimate (SE%) ([1]; RSV alone): 865 (37) L
QRSV (RIF), population estimate (SE%) ([1]; co-administered with RIF): 5.03 (18) L/h
V1RSV (RIF), population estimate (SE%) ([1]; co-administered with RIF): 2.98 (50) L
V2RSV (RIF), population estimate (SE%) ([1]; co-administered with RIF): 128 (42) L
contribution of biliary clearance to elimination ([1]; in vivo): 94%
reduction of V1RSV in the presence of RIF ([1]; in vivo): > 90%
CL renal ([1]; male, human, in vivo, 5 mg): 141 mL/min
CLb,RSV, population estimate (SE%) ([1]; male, human, in vivo, 5 mg): 124 (11) L/h
kaRSV, population estimate (SE%) ([1]; single 5-mg oral dose): 0.287 (9) h^−1
change in Cmax (fold increase) following RIF ([2]; RIF 600 mg co-administered): 13.2 fold
range of estimated individual fT ([2]; from AUC with/without RIF): 0.66–0.88
mean fraction eliminated via transporters (fT) [2]: 0.79

Compound: C=C[C@@H]1C[C@]1(NC(=O)[C@@H]1C[C@@H]2CN1C(=O)[C@H](C(C)(C)C)NC(=O)O[C@@H]1C[C@H]1CCCCCc1nc3ccc(OC)cc3nc1O2)C(=O)NS(=O)(=O)C1CC1.O [Grazoprevir]
Fold Change in AUC of rosuvastatin (OATP; inhibitor 200 mg, rosuvastatin 10 mg, ref (16)): 1.59 fold

maximal contribution of biliary clearance to total clearance ([3]; basal conditions): > 85% and 88%
VCPI, population estimate (SE%) ([3]; baseline): 6.59 (12) L
ksyn (zero-order synthesis rate), population estimate (SE%) ([3]; endogenous CPI): 12.7 (6) nM/h
VCPI (RIF), population estimate (SE%) ([3]; in the presence of RIF): 3.4 (13) L
CLR,CPI (renal clearance), population estimate (SE%) ([3]; in vivo): 1.64 (6) L/h
reduction of estimated VCPI in the presence of RIF ([3]; in vivo): ~50%
mean fraction eliminated via transporters (fT) [2]: 0.76
Compound: coproporphyrin I [CPI]

Compound: COC[C@H]1C[C@@H](c2ncc(-c3ccc4c(c3)COc3cc5c(ccc6nc([C@@H]7CC[C@H](C)N7C(=O)[C@@H](NC(=O)OC)C(C)C)[nH]c65)cc3-4)[nH]2)N(C(=O)[C@H](NC(=O)OC)c2ccccc2)C1 [Velpatasvir]
Fold Change in AUC of rosuvastatin (OATP; inhibitor 100 mg, rosuvastatin 10 mg, ref (18)): 2.69 fold

Compound: C=C[C@@H]1C[C@]1(NC(=O)[C@@H]1C[C@@H](Oc2ncc(OC)c3ccc(Cl)cc23)CN1C(=O)[C@@H](NC(=O)OC(C)(C)C)C(C)(C)C)C(=O)NS(=O)(=O)C1CC1 [Asunaprevir]
Fold Change in AUC of rosuvastatin (OATP; inhibitor 200 mg, rosuvastatin 10 mg, ref (14)): 1.41 fold
